Assay results published in US20100016172A1, “Nucleic acid binding assay materials and methods” (priority 2007, published 2010).
Where two headings read alike, the source gives them in different places. Values belong to the molecule of their own block, whether it stands above or below them.

Tests used:
[1] = test system: DNA hairpin target array; assay: CSI array binding assay of Cy3-labeled Exd alone or with polyamide-peptide conjugates; conditions: for Motifs emerging from polyamide-Exd CSI data: in addition to G-stretches, Exd 20 nM, polyamide 50 nM
Method: Protein Binding: The microarrays were washed with 150 mM K-glutamate, 50 mM HEPES pH 7.5, 5% glycerol (reaction buffer), for 5 minutes. […] This solution was added to the hybridization chamber and incubated for 30 minutes. Subsequently, the microarrays were washed with reaction buffer and scanned.
To determine the sequence specificity of Exd, we labeled it with Cy3 at a unique cysteine residue on an unstructured portion of the protein (FIG. 6) (Passner, J. M., Ryoo, H. D., Shen, L., Mann, R. S. & Aggarwal, A. K. (1999) Nature 397, 714-719).
Array design for Hox/Exd Cooperative Binding Assay. The duplex DNA sequences are designed as self-complementary palindromes interrupted at the center by a TCCT sequence to facilitate the formation of DNA hairpins (FIG. 7). The 34 residue oligonucleotide is synthesized directly on the glass surface using a maskless array synthesizer (Singh-Gasson, S., Green, R. D., Yeu, Y., Nelson, C., Blattner, F., Sussman, M. R., Cerrina, F. (1999) Nat. Biotechnol. 17, 974-978) that can readily create up to 786,000 spatially resolved features. The unimolecular construction of duplex DNA allows the array to be reused several times without appreciable loss of information. After inducing hairpin formation, we find that greater than 95% of the oligonucleotides in the array form duplexes. In our hairpin design, we added three constant base pairs on either side of the 8 base pairs that were permuted (N′-8).
PA2 and PA3 (ImImPy*Py-γ-ImPyPyPy-β-Dp) are designed to target the sequence 5′-WGWCCW-3′. […] PA2 and PA3 differ solely by a single methylene in the linker connecting the Exd binding peptide to the polyamide (FIG. 8A) (Hauschild, K. E., Metzler, R. E., Arndt, H. D., Moretti, R., Raffaelle, M., Dervan, P. B., Ansari, A. Z. (2005) Proc. Natl. Acad. Sci. U.S.A. 102, 5008-5013). Since these polyamides are not fluorescently labeled, we detect cognate sites bound cooperatively by synthetic Hox mimics and Exd, as well as sites bound by Exd alone.
The raw array data for the above experiments were treated as described in Example 2. […] The Exd binding motif is 5′-NGAN-3′, which is consistent with the structural and genetic studies of Hox-Exd cognate sites (White, R. A., Aspland, S. E., Brookman, J. J., Clayton, L. & Sproat, G. (2000) Mech. Dev. 91, 217-226). In other words, the 5′-GA-3′ dinucleotide is the only required sequence determinant for Exd binding to DNA. Remarkably, the array identified the differences in the arrangement of polyamide and Exd binding sites due to ˜1.25 Å difference in the linker length between PA2 and PA3 (FIG. 8C). The other important result that emerges is that cooperative ternary assembly with Exd stabilizes binding of synthetic Hox mimics to truncated sites (5′-WGWC-3′). This is often seen in nature, where cooperative assembly of transcription factors utilizes sub-optimal binding sites to ensure that only a higher order complex can efficiently bind to a regulatory element (Thanos, D. & Maniatis, T. (1996) Methods Enzymol. 274, 162-173; Ptashne, M. & Gann, A. Genes and Signals. (2002) CSHL Press, New York).

[2] = test system: Consensus hairpin DNA; assay: Piper electrophoretic mobility shift assay; type: binding; conditions: 5 μM of PIPER
Method: (§1) The dotted line represents residues that are disordered in the crystal structure. The Exd residue R2C, is the unstructured amino acid to which the Cy3 dye is attached. […] The G-rich DNA in the absence of Exd has a band (bottom arrow), which is higher than the Consensus DNA shift with Exd and polyamide.
(§2) Piper Electrophoretic Mobility Shift Assay (FIG. 6D). The G-rich and Consensus hairpin DNA (same DNA as used in Hairpin Induction for EMSA) were incubated with increasing PIPER (Humphrey, W., Dalke, A. & Schulten, K. (1996) J. Mol. Graphics 14, 33-38) concentrations. PIPER final concentrations were […]. The gels were run and processed as above using an 8% acrylamide/3% glycerol gel with 0.5×TBE.

[3] = test system: G-rich hairpin DNA; assay: Piper electrophoretic mobility shift assay; type: binding; conditions: 5 μM of PIPER
Method: as §1, §2

[4] = test system: 8-position sequence variation DNA hairpin target array; assay: CSI array binding assay of PA1 (Cy3 fluorescence intensity)
From the text: Hairpin Target CSI Microarray. Each hairpin target was composed of a central permuted 8 base pair region with X^1 with a three base pair CGC sequence anchor region flanking either end, with a complementary sequence on X^2. A fluorescently tagged nucleic acid binding assay molecule was applied to the microarray to generate the nucleic acid binding profile for that assay molecule. Analysis of the array signal intensity gives rise to a reference grid showing the binding intensity output for the array. High intensity features indicate tight binding of the assay molecule to that specific target sequence.
Binding Assay: Microarray slides were immersed in 1×PBS (Phosphate Buffered Saline) and placed in a 90° C. water bath for 30 minutes to induce hairpin formation of the oligonucleotides. Slides were then transferred to a tube of non-stringent wash buffer (Saline-Sodium Phosphate-EDTA Buffer, 0.01% v/v Tween-20) and scanned to check for low background (<200 intensity). Microarrays were scanned using a ScanArray 5000 and the image files extracted with GenePix Pro version 3.0.
Polyamide binding: Microarrays prepared as above were placed in the microarray hybridization chamber and washed twice with non-stringent wash buffer. Polyamide was diluted to 5 nM in Hyb buffer (100 mM MES, 1 M NaCl, 20 mM EDTA, 0.01% v/v Tween-20). Polyamide (5 nM) was then added to the hybridization chamber and incubated at room temperature overnight (16 hours). Finally, the microarrays were washed twice with non-stringent wash buffer and scanned.
The array-to-array variability was very low with an average correlation coefficient of 0.88 (FIG. 4A). […] The duplicate features within an array and replicate features between arrays were averaged together to give finalized intensities. These averaged intensities were then converted into Z-scores [z=signal−meant/standard deviation] to reflect the signal-to-noise ratio.
Data Processing: For each replicate, global mean normalization was used to ensure the mean intensity of each microarray was the same. Local mean normalization (Colantuoni, C., Henry, G., Zeger, S. & Pevsner, J. (2002) Bioinformatics 18, 1540-1541) was then used to ensure the intensity was evenly distributed throughout each sector of the microarray surface. Outliers between replicate features were detected using the Q-test at 90% confidence and filtered out. The replicates were then quantile normalized (Bolstad, B. M., Irizarry, R. A., Astrand, M. & Speed, T. P. (2003) Bioinformatics 19, 185-193) in order to account for any possible non-linearity between arrays. Duplicate features were then averaged together. The median of the averaged features was subtracted to account for background.
Z-scores were calculated as |signal−median|/standard deviation. Due to the right-handed tail effect, standard deviation of the background signal was based upon the standard deviation from the median of all signals less than the median. The relationship of Z-score to P-value can be found in Table 1, below. Motifs were then found by running several motif finding algorithms (Bailey, T. L. & Elkan, C. (1994) Proc. of the 2nd Intl. Conference on Intelligent Systems for Mol. Biol., AAAI Press, Menlo Park, Calif., 28-36; Hughes, J. D., Estep, P. W., Tavazoie, S. & Church, G. M. (2000) J. Mol. Biol. 296, 1205-1214; Liu, X. S., Brutlag, D. L. & Liu, J. S. (2002) Nat. Biotechnol. 20, 835-839) on sequences in the highest Z-score bin. Logos (Schneider, T. D. & Stephens, R. M. (1990) Nucl. Acids Res. 18, 6097-6100) of each motif were then created by using sequences from the highest Z-score bin that contained the motif.

[5] = test system: DNA cognate sites (sequences used in the footprints); conditions: footprinting, cited from earlier work
[6] = target: T1, Extradenticle (Exd) homeodomain (Drosophila melanogaster, UniProt P40427 SEQ:1-63); assay: EMSA; 100 nM Exd; band completely shifted; polyamide has no effect; K-glutamate 150 mM, HEPES pH 7.5; conditions: tags: none stated for EMSA; label: 32P; hairpin design; likely G-quadruplex
T1 sequence: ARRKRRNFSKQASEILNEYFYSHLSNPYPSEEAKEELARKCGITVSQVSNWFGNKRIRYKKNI
Method: Electrophoretic Mobility Shift Assays: 40mer DNA sequences labeled with ³²P (as per standard methods) were used in all reactions. Reactions were performed in a buffer composed of 150 mM Potassium Glutamate, 50 mM HEPES pH=7.5, 2 mM DTT, 100 ng/μL of BSA, 10% DMSO, and 10% glycerol. For the binding tests, polyamide-peptide conjugates (50 nM final concentration) and ³²P-DNA were incubated together for 30 minutes at 4° C. Exd was then added to bring the reaction volume to 20 μL. Exd final concentrations were 0.033, 0.1, 0.33, 1, 3.3, 10, 33, and 100 nM. These reactions were incubated at 4° C. for 1 hour and then 15 μL was loaded onto a pre-run 10% acrylamide/3% glycerol gel (1×TBE).
(§3) Hairpin Induction for Electrophoretic Mobility Shift Assay (Supplementary Figure S4B). Hairpin DNA was formed by heating synthesized ssDNA to 95° C. for 5 minutes and then rapidly cooling them on ice. The 34mer DNA […] were then labeled with ³²P (as per standard methods). For the hairpin electrophoretic mobility shift assays the concentrations of polyamide used were 50 nM, and Exd was present at a concentration of 100 nM. The reactions were performed in the above buffer and the gels were then run as before with the following exceptions: the gels were 8% acrylamide/3% glycerol gel with 0.5×TBE.

[7] = test system: G-rich hairpin DNA; assay: Hairpin electrophoretic mobility shift assay with Exd and polyamide; type: binding; conditions: upon addition of Exd (100 nM)
Method: as §1
as §3, with “^32P” for “³²P”

- Motifs emerging from polyamide-Exd CSI data [1]: only two of those motifs
Molecule: ImImPy*Py-γ-ImPyPyPy-β-Dp [PA3]

- Motifs emerging from polyamide-Exd CSI data [1]: three clear motifs
Molecule: ImImPy*Py-γ-ImPyPyPy-β-Dp [PA2]

Molecule: O=C1c2ccc3c4ccc5c6c(ccc(c7ccc(c2c37)C(=O)N1CCN1CCCCC1)c64)C(=O)N(CCN1CCCCC1)C5=O [PIPER, N,N-Bis[2-(1-piperidino)ethyl]-3,4,9,10-perylenetetracarboxylic diimide]
- Aggregation of DNA (immobility from the well) [2]: does not
- Aggregation of DNA (immobility from the well) [3]: significant aggregation

- Intensity ([4]; Data Point A, average of all features containing ATGTACAT): 19715
- Intensity ([4]; Data Point B, average of all features containing AGTACT): 10952
- Intensity ([4]; Data Point C, average of all features containing ATCTACAT): 3035.5
- Intensity ([4]; Data Point D, average of all features containing ATATACAT): 2073.25
- Intensity ([4]; Data Point E, average of all features containing ATGTATTT): 1426.5
- Intensity relative to other permutations of the consensus sequence ([4]; all sequences containing 5′-WWGATCWW-3′): significantly lower intensities
- Effect of substitution on binding ([4]; double substitution at positions 3 and 6 to W (A/T stretch)): retains its ability to bind PA1
- Effect of substitution on binding ([4]; substituting an S (G or C) at position 8): only subtly decreases binding
- Effect of substitution on binding ([4]; substituting any other position that prefers a W with an S residue): nearly abolishes binding
Molecule: ImPy*PyPy-γ-ImPyPyPy-β-Dp [PA1]
- Effect of substitution on binding ([4]; replacing one of the S residues at positions 6 (or 3′) with a W): significantly attenuates, but does not abolish binding
- Ka ([5]; Data Point A, sequence ATGTACAT): 70 10^9 M^−1
- Ka ([5]; Data Point B, sequence AGTACT): 37 10^9 M^−1
- Ka ([5]; Data Point C, sequence ATCTACAT): 3.2 10^9 M^−1
- Ka ([5]; Data Point D, sequence ATATACAT): 2.8 10^9 M^−1
- Ka ([5]; Data Point E, sequence ATGTATTT): 0.41 10^9 M^−1

Molecule: CGCCCCCCCCCCGCTCCTGCGGGGGGGGGGCGTTTT (structured_DNA) [G-rich hairpin DNA]
- binding result [6]: binds

- Exd binding motif ([1]; Cy3-labeled Exd with PA2 or PA3): 5′-NGAN-3′
- Sequence-specific binding ([1]; Exd alone, 0.2-200 nM): little sequence-specific binding
B1: Exd: transcription factor essential in Drosophila development; used Cy3-labeled (Exd R2C, residues 1-88) on the array (protein, UniProt P40427 1-88, looked up, fragment)
chain: MEDPNRMLAHTGGMMAPQGYGLSGQDDGQNAGSENEVRKQKDIGEILQQIMSISEQSLDEAQARKHTLNCHRMKPALFSVLCEIKEKT
modifications: Cy3 label
notes: transcription factor essential in Drosophila development; used Cy3-labeled (Exd R2C, residues 1-88) on the array
- Sequence preference ([1]; Exd alone): unexpected preference for stretches of consecutive G-residues
- Band shift of G-rich DNA [7]: completely shifted
